We go through one compound from paper PMC3637861 (Journal of muscle research and cell motility, 2013).

Structures are written as SMILES.

This assay concerns the target Recombinant chicken cardiac troponin C (cTnC) (Gallus gallus, UniProt P09860). The assay can be described thus: intrinsic tyrosine fluorescence quenching titration, hyperbolic plus linear fit. The class given is binding.

Regarding `O=C(O[C@@H]1Cc2c(O)cc(O)cc2O[C@@H]1c1cc(O)c(O)c(O)c1)c1cc(O)c(O)c(O)c1` [EGCg], the Kd is 65 µM.

The term Kd denotes the free concentration of one partner at which half of the binding sites on the other are occupied at equilibrium, for simple one-to-one binding.
